What was measured:
LTK [1] = biological target: T1, LTK (Homo sapiens, UniProt P29376); experiment: Kinase assay; format: biochemical; conditions: average of duplicate measurements
[2] = system: Ba/F3 ROS1 (SLC34A2) L2026M; experiment: Antiproliferation assay; format: cell-based; conditions: Mus musculus, BaF3; Ba/F3 cell line
Experimental: (§1) Ba/F3 immortalized murine bone marrow–derived pro-B cells were obtained from Creative Biogene (Shirley, NY) and cultured in RPMI supplemented with 10% FBS and IL3 (0.5 ng/mL). Ba/F3 cells expressing ROS1 variants were maintained in RPMI supplemented with 10% FBS and puromycin (0.7 mg/mL). […] Each compound was dissolved in DMSO and serially diluted in RPMI for cell culture experiments.
(§2) To assess the 72 h effect of drug treatment on cell proliferation, 2000 to 3000 cells were plated in replicates of three in 96-well plates. The plates were placed in an incubator at 37 °C, 5% CO2 for 72 h. Following drug treatments, the cells were incubated with the Alamar Blue Assay reagent (BioRad), 5 μL each well for 4 h at 37 °C and 5% CO2. Luminescence was measured on a multiplate reader and analyzed. […] IC50 values were determined using a nonlinear regression model with a sigmoidal dose response in GraphPad. The data were collected based on triplicate experiments, and presented as mean ± SD.

[3] = system: Ba/F3 ROS1 (SLC34A2) G2032R; experiment: Antiproliferation assay; format: cell-based; conditions: Mus musculus, BaF3; Ba/F3 cell line
Experimental: as §1, §2

[4] = system: Ba/F3 ROS1 (SLC34A2) V2098I; experiment: Antiproliferation assay; format: cell-based; conditions: Mus musculus, BaF3; Ba/F3 cell line
Experimental: as §1, §2

[5] = system: Ba/F3 ROS1 (SLC34A2) D2033N; experiment: Antiproliferation assay; format: cell-based; conditions: Mus musculus, BaF3; Ba/F3 cell line
Experimental: as §1, §2

Ba/F3 ROS1 (SLC34A2) = experiment: Antiproliferation assay; format: cell-based; conditions: Mus musculus, BaF3; Ba/F3 cell line
Experimental: as §1, §2

[6] = system: Ba/F3 ROS1 (SLC34A2) G2032R-F2075 V; experiment: Antiproliferation assay; format: cell-based; conditions: Mus musculus, BaF3; Ba/F3 cell line
Experimental: as §1, §2

CLK1 [7] = biological target: T2, CLK1 (Homo sapiens, UniProt P49759); experiment: Kinase assay; format: biochemical; conditions: average of duplicate measurements
T2 sequence (P49759 whole entry): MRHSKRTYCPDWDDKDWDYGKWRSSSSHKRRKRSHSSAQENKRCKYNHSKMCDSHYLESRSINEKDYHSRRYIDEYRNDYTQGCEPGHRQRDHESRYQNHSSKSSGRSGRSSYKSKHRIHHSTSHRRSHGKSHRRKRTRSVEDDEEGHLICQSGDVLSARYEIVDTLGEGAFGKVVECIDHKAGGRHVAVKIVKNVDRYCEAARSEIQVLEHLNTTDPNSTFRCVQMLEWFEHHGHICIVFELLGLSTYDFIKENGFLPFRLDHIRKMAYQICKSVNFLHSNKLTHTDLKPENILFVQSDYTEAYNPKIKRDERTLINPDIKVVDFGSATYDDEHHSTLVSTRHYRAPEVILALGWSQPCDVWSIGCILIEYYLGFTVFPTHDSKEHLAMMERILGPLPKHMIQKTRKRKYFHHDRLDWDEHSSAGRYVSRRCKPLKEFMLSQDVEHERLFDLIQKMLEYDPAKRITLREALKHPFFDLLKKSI

INSRR = INSRR (Homo sapiens, UniProt P14616); experiment: Kinase assay; format: biochemical; conditions: average of duplicate measurements
[8] = system: Ba/F3 ROS1 (CD74) G2032R-L2086F; experiment: Antiproliferation assay; format: cell-based; conditions: Mus musculus, BaF3; Ba/F3 cell line
Experimental: (§3) Ba/F3 immortalized murine bone marrow–derived pro-B cells were obtained from Creative Biogene (Shirley, NY) and cultured in RPMI supplemented with 10% FBS and IL3 (0.5 ng/mL). Ba/F3 cells expressing ROS1 variants were maintained in RPMI supplemented with 10% FBS and puromycin (0.7 mg/mL). Crizotinib, ceritinib, brigatinib, repotrectinib, and lorlatinib were purchased from MedChem Express. Each compound was dissolved in DMSO and serially diluted in RPMI for cell culture experiments.
as §2
(§4) cDNA encoding CD74-ROS1 or mutant CD74–ROS1 was cloned into retroviral expression vectors (pLenti), and viruses were generated in HEK293T cells by transfecting with packaging plasmids. The resulting virus was used to infect Ba/F3 cells. After retroviral infection, Ba/F3 cells were selected by incubation with puromycin (0.7 mg/mL) for 2 weeks. For Ba/F3 cells infected by the CD74–ROS1 variants, IL3 was withdrawn from the culture medium at least 2 weeks before the experiments.

[9] = system: Ba/F3 ROS1 (CD74) S1986F-G2032R-L2086F; experiment: Antiproliferation assay; format: cell-based; conditions: Mus musculus, BaF3; Ba/F3 cell line
Experimental: as §3, §2, §4

[10] = system: Ba/F3 ROS1 (CD74) S1986F-L2086F; experiment: Antiproliferation assay; format: cell-based; conditions: Mus musculus, BaF3; Ba/F3 cell line
Experimental: as §3, §2, §4

[11] = system: Ba/F3 ROS1 (CD74) S1986F-G2032R; experiment: Antiproliferation assay; format: cell-based; conditions: Mus musculus, BaF3; Ba/F3 cell line
Experimental: as §3, §2, §4

Ba/F3 ROS1 (CD74) G2032R = experiment: Antiproliferation assay; format: cell-based; conditions: Mus musculus, BaF3; Ba/F3 cell line
Experimental: as §3, §2, §4

Ba/F3 ROS1 (CD74) L2086F = experiment: Antiproliferation assay; format: cell-based; conditions: Mus musculus, BaF3; Ba/F3 cell line
Experimental: as §3, §2, §4

EGFR = EGFR (Homo sapiens, UniProt P00533); experiment: Degradation assay; format: cell-based; conditions: average of duplicate measurements
Experimental: (§5) However, the degradation selectivity of 9o often contrasts with its kinase binding selectivity as determined in cells treated with 9o where the kinase level was measurable by Western blot analysis. […] For example, FLT3, CHEK2, and FES, all with kinase binding at <10 nM, were only moderately or minimally degraded, if at all (Table 9).

RET [12] = biological target: T3, RET (Homo sapiens, UniProt P07949); experiment: Degradation assay; format: cell-based; conditions: average of duplicate measurements
T3 sequence (P07949 29-1114, species assumed): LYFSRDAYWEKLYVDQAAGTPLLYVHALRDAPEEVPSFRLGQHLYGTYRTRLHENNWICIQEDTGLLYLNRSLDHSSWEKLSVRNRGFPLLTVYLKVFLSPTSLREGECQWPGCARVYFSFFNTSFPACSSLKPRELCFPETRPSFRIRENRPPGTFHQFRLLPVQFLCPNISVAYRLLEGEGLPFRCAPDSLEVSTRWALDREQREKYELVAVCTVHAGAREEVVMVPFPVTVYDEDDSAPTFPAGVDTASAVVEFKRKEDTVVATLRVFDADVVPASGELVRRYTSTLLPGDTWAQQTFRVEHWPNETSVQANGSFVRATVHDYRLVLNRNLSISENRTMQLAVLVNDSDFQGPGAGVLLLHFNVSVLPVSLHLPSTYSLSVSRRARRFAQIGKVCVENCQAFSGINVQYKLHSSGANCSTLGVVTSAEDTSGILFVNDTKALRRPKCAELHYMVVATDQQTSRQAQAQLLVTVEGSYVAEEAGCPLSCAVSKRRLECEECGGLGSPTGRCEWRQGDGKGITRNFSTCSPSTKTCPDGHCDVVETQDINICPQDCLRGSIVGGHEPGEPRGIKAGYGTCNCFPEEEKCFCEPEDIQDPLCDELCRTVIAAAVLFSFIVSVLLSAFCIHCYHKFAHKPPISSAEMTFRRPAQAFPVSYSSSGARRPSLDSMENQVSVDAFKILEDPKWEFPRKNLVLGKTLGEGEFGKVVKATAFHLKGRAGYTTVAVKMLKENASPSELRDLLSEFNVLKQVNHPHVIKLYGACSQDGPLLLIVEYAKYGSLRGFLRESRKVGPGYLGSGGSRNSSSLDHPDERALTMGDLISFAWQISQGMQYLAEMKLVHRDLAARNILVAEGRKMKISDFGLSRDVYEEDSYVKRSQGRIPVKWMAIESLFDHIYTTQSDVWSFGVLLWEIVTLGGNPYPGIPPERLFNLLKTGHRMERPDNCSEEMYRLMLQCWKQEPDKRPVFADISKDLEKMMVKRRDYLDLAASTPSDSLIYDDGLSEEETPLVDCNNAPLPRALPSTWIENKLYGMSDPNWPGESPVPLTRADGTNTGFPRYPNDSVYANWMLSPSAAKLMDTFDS
Experimental: as §5

CLK1 [13] = biological target: T2, CLK1; experiment: Degradation assay; format: cell-based; conditions: average of duplicate measurements
Experimental: as §5

C-MET = C-MET (Homo sapiens, UniProt P08581); experiment: Degradation assay; format: cell-based; conditions: average of duplicate measurements
Experimental: as §5

ERBB4/HER4 = ERBB4/HER4 (Homo sapiens, UniProt Q15303); experiment: Degradation assay; format: cell-based; conditions: average of duplicate measurements
Experimental: as §5

FES = FES (Homo sapiens, UniProt P07332); experiment: Degradation assay; format: cell-based; conditions: average of duplicate measurements
FES, sequence (P07332 whole entry, species assumed): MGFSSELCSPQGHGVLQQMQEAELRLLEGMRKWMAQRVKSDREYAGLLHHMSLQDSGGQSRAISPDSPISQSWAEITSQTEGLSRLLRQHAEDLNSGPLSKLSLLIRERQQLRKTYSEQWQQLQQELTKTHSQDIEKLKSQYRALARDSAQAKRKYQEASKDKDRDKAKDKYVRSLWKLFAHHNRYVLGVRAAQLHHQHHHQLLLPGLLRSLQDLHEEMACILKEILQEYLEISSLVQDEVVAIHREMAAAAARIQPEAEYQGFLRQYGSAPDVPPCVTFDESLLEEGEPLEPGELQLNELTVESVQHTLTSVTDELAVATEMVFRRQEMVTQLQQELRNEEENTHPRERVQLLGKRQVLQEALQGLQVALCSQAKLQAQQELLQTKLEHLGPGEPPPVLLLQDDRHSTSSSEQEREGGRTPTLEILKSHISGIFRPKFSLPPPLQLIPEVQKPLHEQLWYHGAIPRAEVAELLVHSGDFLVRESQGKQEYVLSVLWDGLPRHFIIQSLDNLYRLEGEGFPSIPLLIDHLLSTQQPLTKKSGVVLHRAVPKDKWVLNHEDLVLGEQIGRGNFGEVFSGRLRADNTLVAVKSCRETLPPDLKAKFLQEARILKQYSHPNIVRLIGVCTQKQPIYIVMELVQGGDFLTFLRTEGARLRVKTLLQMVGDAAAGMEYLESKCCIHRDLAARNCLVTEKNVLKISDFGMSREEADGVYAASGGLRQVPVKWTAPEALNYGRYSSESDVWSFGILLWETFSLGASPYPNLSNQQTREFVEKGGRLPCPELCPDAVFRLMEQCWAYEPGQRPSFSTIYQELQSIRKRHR
Experimental: as §5

FLT3 = FLT3 (Homo sapiens, UniProt P36888); experiment: Degradation assay; format: cell-based; conditions: average of duplicate measurements
Experimental: as §5

LTK [14] = biological target: T1, LTK; experiment: Degradation assay; format: cell-based; conditions: average of duplicate measurements
Experimental: as §5

FAK/PTK2 = FAK/PTK2 (Homo sapiens, UniProt Q05397); experiment: Degradation assay; format: cell-based; conditions: average of duplicate measurements
FAK/PTK2, sequence (Q05397 whole entry): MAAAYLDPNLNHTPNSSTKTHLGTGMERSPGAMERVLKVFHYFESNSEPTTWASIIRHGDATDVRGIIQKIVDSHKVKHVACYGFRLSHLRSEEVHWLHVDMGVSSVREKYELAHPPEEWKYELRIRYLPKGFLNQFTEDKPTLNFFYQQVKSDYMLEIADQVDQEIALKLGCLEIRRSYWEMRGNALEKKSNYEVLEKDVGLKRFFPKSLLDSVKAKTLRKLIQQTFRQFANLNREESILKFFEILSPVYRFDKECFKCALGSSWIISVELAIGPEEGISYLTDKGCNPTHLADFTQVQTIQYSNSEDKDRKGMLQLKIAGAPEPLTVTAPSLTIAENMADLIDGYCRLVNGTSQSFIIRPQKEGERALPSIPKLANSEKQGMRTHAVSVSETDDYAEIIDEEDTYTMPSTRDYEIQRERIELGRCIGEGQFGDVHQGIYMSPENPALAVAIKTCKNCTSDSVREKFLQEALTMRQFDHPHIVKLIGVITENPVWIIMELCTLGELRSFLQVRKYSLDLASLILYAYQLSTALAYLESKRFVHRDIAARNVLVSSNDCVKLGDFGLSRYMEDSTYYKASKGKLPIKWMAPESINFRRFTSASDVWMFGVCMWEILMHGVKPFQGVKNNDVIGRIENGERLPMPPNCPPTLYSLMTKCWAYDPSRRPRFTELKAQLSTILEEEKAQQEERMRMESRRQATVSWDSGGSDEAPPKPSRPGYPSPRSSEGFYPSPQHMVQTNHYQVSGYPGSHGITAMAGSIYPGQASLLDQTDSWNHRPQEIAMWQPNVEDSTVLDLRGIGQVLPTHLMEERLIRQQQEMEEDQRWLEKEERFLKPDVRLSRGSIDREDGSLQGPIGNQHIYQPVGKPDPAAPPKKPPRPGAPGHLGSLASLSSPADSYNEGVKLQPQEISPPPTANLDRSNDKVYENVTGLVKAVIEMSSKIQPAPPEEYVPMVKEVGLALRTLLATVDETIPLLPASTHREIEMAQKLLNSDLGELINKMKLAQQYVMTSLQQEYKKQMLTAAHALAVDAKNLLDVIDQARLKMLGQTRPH
Experimental: as §5

CAMK2D = experiment: Degradation assay; format: cell-based; conditions: average of duplicate measurements
Experimental: as §5

ERBB2 = ERBB2 (Homo sapiens, UniProt P04626); experiment: Degradation assay; format: cell-based; conditions: average of duplicate measurements
Experimental: as §5

FER = FER (Homo sapiens, UniProt P16591); experiment: Degradation assay; format: cell-based; conditions: average of duplicate measurements
Experimental: as §5

ALK = ALK (Homo sapiens, UniProt Q9UM73); experiment: Degradation assay; format: cell-based; conditions: average of duplicate measurements
Experimental: as §5

NUAK1 = NUAK1 (Homo sapiens, UniProt O60285); experiment: Kinase assay; format: biochemical; conditions: average of duplicate measurements
NUAK1, sequence (O60285 whole entry, species assumed): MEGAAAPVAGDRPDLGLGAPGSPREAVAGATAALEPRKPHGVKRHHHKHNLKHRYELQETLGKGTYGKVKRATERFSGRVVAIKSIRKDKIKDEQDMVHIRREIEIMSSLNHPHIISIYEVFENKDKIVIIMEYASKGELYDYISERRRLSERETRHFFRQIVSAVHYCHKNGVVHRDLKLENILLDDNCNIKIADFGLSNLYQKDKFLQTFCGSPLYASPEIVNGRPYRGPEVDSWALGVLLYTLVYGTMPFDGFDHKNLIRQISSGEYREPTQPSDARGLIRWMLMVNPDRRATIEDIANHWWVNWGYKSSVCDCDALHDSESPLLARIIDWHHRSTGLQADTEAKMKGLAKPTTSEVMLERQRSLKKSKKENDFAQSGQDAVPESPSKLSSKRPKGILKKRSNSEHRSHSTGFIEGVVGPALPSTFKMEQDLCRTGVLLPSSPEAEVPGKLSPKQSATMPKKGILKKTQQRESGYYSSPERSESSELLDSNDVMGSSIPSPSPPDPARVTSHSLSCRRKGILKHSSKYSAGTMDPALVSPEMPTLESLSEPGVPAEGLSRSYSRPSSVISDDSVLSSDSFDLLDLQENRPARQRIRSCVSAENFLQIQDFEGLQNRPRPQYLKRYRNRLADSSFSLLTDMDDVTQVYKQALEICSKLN

ROS1 = ROS1 (Homo sapiens, UniProt P08922); experiment: Kinase assay; format: biochemical; conditions: average of duplicate measurements
RET [15] = biological target: T3, RET; experiment: Kinase assay; format: biochemical; conditions: average of duplicate measurements

T1 sequence (P29376 17-864, species assumed): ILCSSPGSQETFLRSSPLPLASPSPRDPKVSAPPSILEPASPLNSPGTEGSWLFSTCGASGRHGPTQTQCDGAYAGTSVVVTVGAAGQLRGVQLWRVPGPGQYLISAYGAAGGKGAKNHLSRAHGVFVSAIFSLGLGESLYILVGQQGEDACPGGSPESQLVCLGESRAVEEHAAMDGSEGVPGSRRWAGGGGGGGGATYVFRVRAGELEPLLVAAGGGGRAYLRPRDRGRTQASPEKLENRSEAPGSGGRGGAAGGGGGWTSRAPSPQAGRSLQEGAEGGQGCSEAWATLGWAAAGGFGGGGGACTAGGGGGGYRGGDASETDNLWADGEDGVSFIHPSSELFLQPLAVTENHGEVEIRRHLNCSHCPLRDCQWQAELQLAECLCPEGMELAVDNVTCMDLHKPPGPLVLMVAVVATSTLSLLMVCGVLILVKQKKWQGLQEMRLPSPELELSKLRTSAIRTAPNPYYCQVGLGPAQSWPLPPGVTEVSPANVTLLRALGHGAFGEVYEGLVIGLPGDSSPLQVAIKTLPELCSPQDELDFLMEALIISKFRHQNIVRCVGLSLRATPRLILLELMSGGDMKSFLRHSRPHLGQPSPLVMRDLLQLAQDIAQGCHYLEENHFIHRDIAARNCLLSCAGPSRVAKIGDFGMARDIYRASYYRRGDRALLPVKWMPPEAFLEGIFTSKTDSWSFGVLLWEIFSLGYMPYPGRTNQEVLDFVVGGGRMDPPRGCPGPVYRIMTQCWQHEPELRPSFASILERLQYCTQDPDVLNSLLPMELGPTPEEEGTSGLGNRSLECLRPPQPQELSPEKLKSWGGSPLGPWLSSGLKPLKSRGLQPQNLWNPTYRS

COc1cc(N2CCC(N3CCN(CC4CCN(c5ccc6c(c5)CN(C5CCC(=O)NC5=O)C6=O)CC4)CC3)CC2)ccc1Nc1ncc(Cl)c(Nc2ccccc2P(C)(C)=O)n1 (stereo not shown) [9o, 3-(5-(4-((4-(1-(4-((5-Chloro-4-((2-(dimethylphosphoryl)phenyl)amino)pyrimidin-2-yl)amino)-3-methoxyphenyl)piperidin-4-yl)piperazin-1-yl)methyl)piperidin-1-yl)-1-oxoisoindolin-2-yl)piperidine-2,6-dione] was tested, and the IC50 (LTK [1]) was 54 nM, the IC50 [2] was 2.5 ± 0.6 nM and the IC50 [3] was 6.3 ± 1.1 nM. It also gave an IC50 [4] of 4.6 ± 2.1 nM, an IC50 [5] of 9.7 ± 2.6 nM and an IC50 (Ba/F3 ROS1 (SLC34A2)) of 1.1 ± 0.4 nM. It also gave an IC50 [6] of 5.6 ± 0.6 nM, an IC50 (CLK1 [7]) of 35 nM and an IC50 (INSRR) of 45 nM. It also gave an IC50 [8] of 66.2 ± 18.2 nM, an IC50 [9] of 37.8 ± 4.4 nM and an IC50 [10] of 1.9 ± 0.4 nM. For the same compound, the IC50 [11] was 49.5 ± 10.2 nM, the IC50 (Ba/F3 ROS1 (CD74) G2032R) was 7.7 ± 2 nM and the IC50 (Ba/F3 ROS1 (CD74) L2086F) was 6.9 ± 1.7 nM. It also gave a DC50 (EGFR) of 255 nM, a DC50 (RET [12]) of 58 nM and a DC50 (CLK1 [13]) of over 1000 nM. It also gave a DC50 (C-MET) of over 1000 nM, a DC50 (ERBB4/HER4) of over 1000 nM and a DC50 (FES) of 320 nM. It also gave a DC50 (FLT3) of over 1000 nM, a DC50 (LTK [14]) of over 1000 nM and a DC50 (FAK/PTK2) of 1.5 nM. For the same compound, the DC50 (CAMK2D) was 264 nM, the DC50 (ERBB2) was 474 nM and the DC50 (FER) was 17 nM. It also gave a DC50 (ALK) of 1.7 nM, an IC50 (NUAK1) of 47 nM and an IC50 (ROS1) of 0.8 nM. It also gave an IC50 (RET [15]) of 82 nM.
